Reference: patent US20170196868A1, “METHODS AND COMPOSITIONS FOR TREATMENT OF HER-POSITIVE CANCERS” (UNIVERSITY OF SOUTH CAROLINA, priority 2014, published 2017)
“And” between values parts separate entries of the source, which are not always exact repeats. Identical values can stand only once.

Key:
Assay type in all cases: cell-based
[1] = system: BT474, a ER+HER2+ breast cancer cell line; test: MTT assay for relative cell number, drug combination analysis (CompuSyn CI)
Experimental: (§1) FIG. 1 presents an analysis of the nature of the interaction between CDK8/19 inhibitor Senexin B (a.k.a. SNX2-1-165) developed and owned by Senex Biotechnology, Inc.) and a HER2-specific monoclonal antibody (a biosimilar of trastuzumab from Biocad, Strelna, Russia) in BT474, a ER+HER2+ breast cancer cell line. In these experiments, 2000 cells/well were plated in each well of 96 well plates. […] Treatment was repeated after 3 days, and the MTT assay for relative cell number was performed after the total of 7 days of treatment. The Combination Index (CI) values were calculated using CompuSyn® (www.combosyn.com), a web tool based on the principles described in Chou (2006). […] Similar analysis was conducted for the interaction between Senexin B and lapatinib (LAP), a small-molecule inhibitor of both HER2 and EGFR, in the same cells; using a SNXB:LAP molar ratio of 10:1.

ER-HER2+ cell line SKBR3 = test: as above; details: Senexin B + lapatinib; three experiments
Experimental: as §1
The same analysis was then conducted using an ER-HER2+ cell line SKBR3 (cells were plated at 1,500 cells per well).

[2] = system: ER-HER2+ breast cancer cell line HCC-1419; test: as above
Experimental: (§2) In these experiments, 2000 cells/well were plated in each well of 96 well plates. […] Treatment was repeated after 3 days, and the MTT assay for relative cell number was performed after the total of 7 days of treatment. The Combination Index (CI) values were calculated using CompuSyn® (www.combosyn.com), a web tool based on the principles described in Chou (2006).
(§3) The same analysis as above was conducted in ER-HER2+ breast cancer cell line HCC-1419 which, despite high levels of HER2, is intrinsically resistant to trastuzumab but sensitive to lapatinib; this pattern of resistance has been associated with activated phosphoinositide 3-kinase/AKT signaling (O'Brien et al., 2010). We also analyzed ER-HER2+ breast cancer cell line JIMT-1, which is intrinsically resistant to both trastuzumab and lapatinib.

[3] = system: ER-HER2+ breast cancer cell line JIMT-1; test: as above
Experimental: as §2, §3

[4] = system: lapatinib-selected SKBR3-LT cells; test: Sensitivity of lapatinib-selected cells versus parental SKBR3, 7-day treatment; details: 7 days
[5] = system: HER2+ colon cancer cell line HCT-116; test: MTT assay for relative cell number, drug combination analysis (CompuSyn CI); details: for response of cells to drug alone: single agent
Experimental: as §1
(§4) To determine if CDK8/19 inhibition affects the response of HER2+ colon cancer cells to lapatinib, we conducted the same type of analysis as above on two HER2+ colon cancer cell lines, HCT-116 and HT-29 (both plated at 1500 cells per well).

[6] = system: HER2+ colon cancer cell line HT-29; test: as above; details: for response of cells to drug alone: single agent
Experimental: as §1, §4

[7] = system: BT474 (ER+HER2+) breast cancer cell line; test: Emergence of lapatinib resistance, continuous exposure for 16 weeks, crystal violet staining; details: for inhibition of cell growth after 1 week of treatment: single agent, 2.5 μM Senexin B or 250 nM lapatinib
Description: (§5) A major problem for chemotherapy in general and for molecularly targeted drugs in particular is the development of drug resistance. The ability to prevent the development of drug resistance could allow sustained response to targeted drugs and transform the outcome of cancer therapy. Since CDK8 is a key mediator of transcriptional reprogramming (Galbraith et al., 2010, 2013), we hypothesized that CDK8 inhibition may prevent the induction of transcription that may be associated with epigenetic acquisition of drug resistance. To test this hypothesis, we plated BT474 (ER+HER2+) and SKBR3 (ER-HER2+) breast cancer cell lines at 250,000 cells per T25 flask, and the cells were continuously exposed to 2.5 μM Senexin B, 250 nM lapatinib, alone and in combination, for a period of 16 weeks, changing drug-containing media twice a week. At selected time points, cells in flasks were fixed with methanol:acetic acid and stained with crystal violet. The results for BT474 are shown in FIG. 9 and for SKBR3 in FIG. 10. […] However, by week 4 (in the case of BT474) or week 8 (in the case of SKBR3), the outgrowth of cells treated with lapatinib alone became noticeable compared to cells treated with lapatinib+Senexin B combination.

[8] = system: SKBR3 (ER-HER2+) breast cancer cell line; test: as above; details: for inhibition of cell growth after 1 week of treatment: single agent, 2.5 μM Senexin B or 250 nM lapatinib
Description: as §5

[9] = system: BT474 breast cancer cells; test: Emergence of erlotinib resistance, continuous treatment for 35 days
Experimental: We conducted a similar experiment with BT474 breast cancer cells continuously treated with erlotinib, an inhibitor of EGFR, another member of the same HER family as HER2/Neu. 600,000 cells per T75 flask were plated in the continuous presence of […] erlotinib, […] Senexin B, or a combination of both (changing drug-containing media twice a week). […] The macroscopic and microscopic views of the corresponding samples after 35 days of treatment are shown in FIG. 11 and FIG. 12, respectively.

[10] = Senexin B + trastuzumab biosimilar (TRAST)
[11] = combination of Senexin B and lapatinib
[12] = combination of 250 nM lapatinib and 2.5 μM Senexin B
[13] = 250 nM lapatinib alone, compared to lapatinib+Senexin B combination

Q: Which “IC75 CI (Combination Index)” value ([1]; Senexin B (SNXB) + trastuzumab biosimilar (HER), fixed ratio 100 nM SNXB:1 μg/ml HER, 7 days, first experiment) does the source give for `CN1CCN(C(=O)c2ccc3cc(CCNc4ncnc5ccc(C#N)cc45)ccc3c2)CC1` [Senexin B] here?
A: 0.019

Q: And the “IC50 CI (Combination Index)” value ([1]; Senexin B + lapatinib (LAP), SNXB:LAP molar ratio 10:1, separate experiments)?
A: 0.512 and 0.728

Q: What about the “IC50 CI (Combination Index)” value (ER-HER2+ cell line SKBR3) of the same compound?
A: 0.611 and 0.674 and 0.470

Q: What about the “CI (Combination Index)” value ([2]; Senexin B + lapatinib) of the same compound?
A: 0.64

Q: What about the “CI (Combination Index)” value [2, 10] of the same compound?
A: 0.45

Q: What about the “IC50 CI (Combination Index)” value ([3]; Senexin B + lapatinib) of the same compound?
A: 0.39

Q: And the “IC50 CI (Combination Index)” value [3, 10]?
A: 0.04

Q: What about the “sensitivity of SKBR3-LT relative to SKBR3” value ([4]; Senexin B combination with lapatinib, fixed ratio) of the same compound?
A: essentially unchanged

Q: And the “sensitivity of SKBR3-LT relative to SKBR3” value ([4]; Senexin B combination with trastuzumab biosimilar, fixed ratio)?
A: essentially unchanged

Q: And the “sensitivity of SKBR3-LT relative to SKBR3” value ([4]; single agent)?
A: essentially unchanged

Q: What about the “CI (Combination Index)” value ([5]; Senexin B + lapatinib) of the same compound?
A: 0.647

Q: What about the “response of cells to combination” value [5, 11] of the same compound?
A: significant response

Q: And the “response of cells to drug alone” value [5]?
A: weak response

Q: What about the “CI (Combination Index)” value ([6]; Senexin B + lapatinib) of the same compound?
A: 0.314

Q: What about the “response of cells to combination” value [6, 11] of the same compound?
A: significant response

Q: What about the “response of cells to drug alone” value [6] of the same compound?
A: weak response

Q: And the “cell growth after 16 weeks of continuous treatment” value [7, 12]?
A: did not grow

Q: And the “inhibition of cell growth after 1 week of treatment” value [7]?
A: limited effect

Q: What about the “cell growth after 16 weeks of continuous treatment” value [8, 12] of the same compound?
A: did not grow

Q: And the “inhibition of cell growth after 1 week of treatment” value [8]?
A: limited effect

Q: What about the “emergence of resistant colonies after 35 days of treatment” value ([9]; combination of 10 mM erlotinib and 1 mM Senexin B) of the same compound?
A: prevented the emergence of resistance

Q: Which results are given for `C#Cc1cccc(Nc2ncnc3cc(OCCOC)c(OCCOC)cc23)c1` [erlotinib]?
A: emergence of resistant colonies after 35 days of treatment ([9]; 10 mM erlotinib alone): erlotinib-resistant colonies emerged; initial effect on cell growth ([9]; 10 mM erlotinib alone): initially inhibited cell growth

Q: Which results are given for `CS(=O)(=O)CCNCc1ccc(-c2ccc3ncnc(Nc4ccc(OCc5cccc(F)c5)c(Cl)c4)c3c2)o1` [lapatinib]?
A: response of cells to drug alone ([3]; single agent): resistant; sensitivity of SKBR3-LT relative to SKBR3 ([4]; single agent): less sensitive; response of cells to drug alone [5]: weak response; response of cells to drug alone [6]: weak response; cell growth after 16 weeks of continuous treatment ([7]; 250 nM lapatinib alone): actively proliferating; time by which outgrowth of treated cells became noticeable [7, 13]: ≤ 4 week; inhibition of cell growth after 1 week of treatment [7]: extremely effective; cell growth after 16 weeks of continuous treatment ([8]; 250 nM lapatinib alone): actively proliferating; time by which outgrowth of treated cells became noticeable [8, 13]: ≤ 8 week; inhibition of cell growth after 1 week of treatment [8]: extremely effective
